Key:
PC3 cells = assay: Wound scratch assay in PC3 cells; assay type: cell-based; details: cycling or quiescent cells, 10 nM R1881, compound 1 µM
Experimental: (§1) In wound scratch analysis, 1.8 × 10^5 cells were seeded in a 24-well plate and made quiescent. Cells were then wounded using 10 µl sterile pipette tips and washed with PBS. They were left un-stimulated or stimulated for the indicated times, in the absence or presence of the selected compounds. To avoid cell proliferation, cytosine arabinoside (Sigma-Aldrich) at 50 μM (final concentration) was included in the cell medium. Different fields were analysed by contrast-phase microscopy, as below described in this section. Migration and invasion assays were done as reported. In migration assay, we used 3 × 10^4 cells in collagen pre-coated Boyden’s chambers with 8 μm polycarbonate membrane (Falcon). The indicated stimuli were added to the upper and the lower chambers. […] Migrating and invading cells were scored by fluorescence microscopy, as below described in this section.
(§2) In wound scratch assay, different fields were analysed using DMIRB inverted microscope (Leica) equipped with N-Plan 10 × objective (Leica), as reported. LNCaP organoids were analysed using the same microscope equipped with C-Plan 40 × or HCX PL Fluotar 63 × objectives (Leica). […] The relative organoid size was calculated using the same software and expressed as a fold increase over the basal organoid size (measured at 3th day). The wound gap was calculated using Image J Software and expressed as % of the decrease in the wound area. […]

[1] = tested on: FAK, paxillin, ERK, RSK and Src tyrosine kinase; assay: Western blot of androgen-induced rapid actions in LNCaP cells (Fig. 6c); assay type: cell-based, human; details: 10 nM R1881, 10 min, compound 1 μM
Excerpt: (§3) All performed as reported. The mouse monoclonal anti-AR (441; Santa Cruz) antibody was used in Co-Ip or WB approaches. TRPM8 was detected using the rabbit polyclonal anti-TRPM8 (NBP1-97311; Novus Biological). […] The rabbit polyclonal anti-ERK (C-14; Santa Cruz), antibody was used to detect total ERK. FAK and P-Tyr397 FAK were detected using the mouse monoclonal anti-FAK (Clone 77/610077 BD Transduction Laboratories) or anti P-Tyr397 FAK (Clone 14/611722; BD Transduction Laboratories) antibodies, respectively. P-Tyr118 paxillin and total paxillin were detected using the rabbit polyclonal anti-P-Y118 (#2541, Cell Signaling) or the mouse monoclonal anti-paxillin (clone 349; BD Biosciences) antibodies, respectively. […] P-Tyr 416 Src and Src were detected using the rabbit monoclonal anti P-Tyr 416 Src (#6943; Cell Signaling) or the mouse monoclonal anti Src (Calbiochem) antibodies, respectively. ERα and ERβ were detected using the rabbit polyclonal anti-ERα (543; Santa Cruz) or anti-ERβ (Upstate Biotechnology, U.S.A.) antibodies. Cyclin D1, p27 and Cdk4 were stained using the mouse monoclonal anti-cyclin D1 (clone AM29; from Zymed Laboratories Inc.), the rabbit polyclonal anti-p27 (C-19; Santa Cruz) or anti Cdk-4 (c-22; Santa Cruz) antibodies, respectively. The mouse monoclonal anti-tubulin (Sigma-Aldrich) antibody was used to detect tubulin. The ECL system (GE Healthcare) was employed to reveal immune-reactive proteins. Densitometric analysis of WB was performed by using Image J Software (https://imagej.nih.gov/ij).

cyclin D1 = assay: Western blot of cyclin D1 in LNCaP cells; assay type: cell-based, human; details: for Cyclin D1, fold increase over the basal level: 15 h; for androgen-induced up-regulation of cyclin D1: R1881, compound 1 μM
Excerpt: as §3

DU-CaP cells = assay: Invasion assay, DU-CaP cells; assay type: cell-based, human; details: 10 nM R1881, compound 1 μM; compared with LNCaP
Experimental: as §1, §2

C4-2B cells = assay: DNA synthesis (BrdU incorporation) in C4-2B cells; assay type: cell-based, human
Experimental: Cells on coverslips were pulsed in vivo with BrdU (Sigma-Aldrich; at 100 μM, final concentration) and left unchallenged or challenged with 10 nM R1881 for 18 h, in the absence or presence of the indicated compounds. Cells were fixed, permeabilized, washed and the BrdU incorporation was analysed as reported. Nuclei were stained with Hoechst and cells on coverslips were scored by IF microscopy, using a DMLB Leica (Leica) fluorescent microscope, equipped with HCX PL Apo 63 × oil objective. Different fields from each coverslip were analyzed and BrdU incorporation was calculated by the formula: percentage of BrdU-positive cells = (No. of BrdU-positive cells/No. of total cells) × 100. Data in the graphs derive from at least 1000 scored cells for each coverslip. Representative images were captured using DC480 camera (Leica) and acquired using Leica Suite software. They are representative of three different experiments.

Cdk4 = assay: Western blot of Cdk4 in LNCaP cells; assay type: cell-based, human; details: 15 h
Excerpt: as §3

AR = assay: Western blot of AR in LNCaP lysate proteins; assay type: cell-based, human; details: for AR in lysates, Average (n=3): Fig 6d upper panel
Excerpt: as §3

FAK, paxillin = assay: Western blot of FAK activation and paxillin phosphorylation in LNCaP cells; assay type: cell-based, human; details: for androgen-elicited FAK activation and paxillin phosphorylation: 10 nM R1881, 10 min; for androgen-elicited FAK activation and paxillin phosphorylation / FAK or paxillin phosphorylation when used alone: compound 1 μM; for FAK or paxillin phosphorylation when used alone: no R1881
Excerpt: as §3

LNCaP cells [2] = assay: Fluorescent Ca2+ imaging (Fluo 4-AM) in LNCaP cells; assay type: cell-based, human; details: for androgen-induced increase of intracellular Ca2+ levels: 10 nM R1881, 240 s, compound 1 μM
Experimental: LNCaP cells in 6 multi-wells were made quiescent and incubated for 60 min at 37 °C with 1 µM 4-Fluo AM (Abcam, ab241082). Cells were washed twice with Hank’s Balanced salt solution (HBSS) to remove any dye non-specifically associated with the cell surface. They were incubated with medium for 30 min to allow complete de-esterification of intracellular AM esters, and then left untreated or treated for 240 s with 10 nM R1881, in the absence or presence of the indicated compounds. Different fields were analyzed using DMIRB Leica (Leica) microscope equipped with C-Plan × 40 or HCX PL Fluotar × 63 objectives (Leica). IF microscopy images were generated using a DFC 450C camera (Leica).

LNCaP cells [3] = assay: Transmigration assay in Boyden chamber, LNCaP cells; assay type: cell-based, human; details: for androgen-induced cell migration: 10 nM R1881, compound 1 μM; for migration when added alone: compound 1 μM, no hormone
Experimental: In wound scratch analysis, 1.8 × 10^5 cells were seeded in a 24-well plate and made quiescent. Cells were then wounded using 10 µl sterile pipette tips and washed with PBS. They were left un-stimulated or stimulated for the indicated times, in the absence or presence of the selected compounds. To avoid cell proliferation, cytosine arabinoside (Sigma-Aldrich) at 50 μM (final concentration) was included in the cell medium. Different fields were analysed by contrast-phase microscopy, as below described in this section. Migration and invasion assays were done as reported. In migration assay, we used 3 × 10^4 cells in collagen pre-coated Boyden’s chambers with 8 μm polycarbonate membrane (Falcon). The indicated stimuli were added to the upper and the lower chambers. Cytosine arabinoside (at 50 μM) was included in the cell medium. After 7 h, non-migrating cells from the membrane upper surface were removed using a sterile cotton swab. In invasion assay, we used 5 × 10^4 cells in Boyden’s chambers with 8 μm polycarbonate membrane (Falcon) pre-coated with growth factor reduced- and phenol red-free Matrigel (Corning). The indicated stimuli were added to the upper and the lower chambers. Cytosine arabinoside (at 50 μM) was included in the cell medium. After 24 h, non-invading cells from the membrane upper surface were removed using a sterile cotton swab. In migration and invasion assays, the membranes were fixed for 20 min in 4% paraformaldehyde, stained with Hoechst (Sigma-Aldrich), removed with forceps from the companion plate and mounted. Migrating and invading cells were scored by fluorescence microscopy, as below described in this section.
In wound scratch assay, different fields were analysed using DMIRB inverted microscope (Leica) equipped with N-Plan 10 × objective (Leica), as reported. LNCaP organoids were analysed using the same microscope equipped with C-Plan 40 × or HCX PL Fluotar 63 × objectives (Leica). Images were captured using a DFC 450C camera (Leica) and acquired using the Application Suite Software (Leica). They are representative of three different experiments. The relative organoid size was calculated using the same software and expressed as a fold increase over the basal organoid size (measured at 3th day). The wound gap was calculated using Image J Software and expressed as % of the decrease in the wound area. Migrating or invading cells from at least 30 fields/each membrane were scored, using a DMLB (Leica) fluorescent microscope, equipped with HCPL Fluotar 20 × objective.

[4] = 1 nM R1881 + compound 1 μM, Fig 2e-f
[5] = cycling cells, 18 h, 100 nM and 1 μM
[6] = 10 nM R1881 + compound 1 μM, Fig 2d

| Structure (SMILES) | wound closure (PC3 cells) | androgen-elicited activation of FAK, paxillin, ERK, RSK and Src [1] | Cyclin D1, fold increase over the basal level (cyclin D1; [4]) | androgen-induced up-regulation of cyclin D1 (cyclin D1) | androgen-induced invasion (DU-CaP cells) | BrdU incorporation (C4-2B cells; [5]) | Cdk4, fold increase over the basal level (Cdk4; [4]) | AR in lysates, Average (n=3) (AR; 10 nM R1881 + compound 1 μM) | AR in lysates, Average (n=3) (AR; compound 1 μM alone) | androgen-elicited FAK activation and paxillin phosphorylation (FAK, paxillin) | FAK or paxillin phosphorylation when used alone (FAK, paxillin) | androgen-induced increase of intracellular Ca2+ levels (LNCaP cells [2]) | androgen-induced cell migration (LNCaP cells [3]) | migration when added alone (LNCaP cells [3]) | other results |
| --- | --- | --- | --- | --- | --- | --- | --- | --- | --- | --- | --- | --- | --- | --- | --- |
| c1ccc(COc2ccc3[nH]cc(CCNCc4ccc(Oc5ccccc5)cc4)c3c2)cc1 [Compound 4] | did not modify | impaired at similar extent | 0,9 fold | significantly impair | Superimposable results | inhibited | 1 fold | 0,9 | 0,9 | impaired | did not affect | reduced the androgen effect | inhibited | leaving unaffected | – |
| C[C@]1(O)CC[C@H]2[C@@H]3CCC4=CC(=O)CCC4=C3C=C[C@@]21C [Compound R1881, reference compound] | – | – | – | – | – | – | – | – | – | – | – | – | – | – | Cyclin D1, fold increase over the basal level (cyclin D1; 1 nM R1881 alone, Fig 2e): 1,5 fold; Cyclin D1, fold increase over the basal level (cyclin D1; 1 nM R1881 alone, Fig 2f): 1,7 fold; Cyclin D1, fold increase over the basal level (cyclin D1; 10 nM R1881 alone, Fig 2d): 2,7 fold; BrdU incorporation (C4-2B cells; 10 nM R1881 (not shown)): did not observe any effect; Cdk4, fold increase over the basal level (Cdk4; 1 nM R1881 alone, Fig 2e): 1 fold; Cdk4, fold increase over the basal level (Cdk4; 1 nM R1881 alone, Fig 2f): 1,1 fold; Cdk4, fold increase over the basal level (Cdk4; 10 nM R1881 alone, Fig 2d): 1 fold; AR, Average (n=3) (AR; Fig 6e, first group of list (section not labelled, probably lysates), R1881 alone): 1; AR in lysates, Average (n=3) (AR; 10 nM R1881 alone, 10 min): 1; FAK activation and paxillin phosphorylation (FAK, paxillin; 10 nM R1881 alone, within 10 min): triggered; intracellular Ca2+ levels (LNCaP cells [2]; 10 nM R1881 alone, within 240 s): increased; increase in number of migrating cells (LNCaP cells [3]; 10 nM R1881 alone): ~3 folds |
| COC(=O)[C@H](Cc1c[nH]c2ccccc12)N(Cc1ccccc1)Cc1ccccc1 [Compound 6] | did not modify | impaired at similar extent | 0,9 fold | significantly impair | Superimposable results | inhibited | 1,1 fold | 1,1 | 0,9 | impaired | did not affect | reduced the androgen effect | inhibited | leaving unaffected | Cyclin D1, fold increase over the basal level (cyclin D1; [6]): 1,2 fold; Cdk4, fold increase over the basal level (Cdk4; [6]): 1,1 fold |

Source: paper PMC8636514, “Therapeutic potential of TRPM8 antagonists in prostate cancer” (Scientific Reports, 2021)
